Test results as given in US11279708B2, “Amidino- and amino-rocaglates as novel translation inhibitors and anticancer agents” (priority 2019, dated 2022).

Columns and labels:
[1] = tested on: eIF4A-dependent translation; experiment: in vitro translation assay, bicistronic FF/HCV/Ren reporter mRNA in Krebs-2 extracts; type: biochemical; conditions: for IC50: bicistronic FF/HCV/Ren mRNA, FIG. 14/15, read-out: IC50, inhibition of cap-dependent translation (FF relative to REN); for inhibition of cap-dependent translation in vitro (in words): screen at 2 μM compound
Experimental: Structure-Activity Relationships. With a number of amidino-rocaglates and amino-rocaglates in hand, we evaluated their inhibition of eIF4A-dependent translation using an in vitro assay as depicted in FIG. 14, where a bicistronic reporter mRNA was designed for translation in Krebs-2 extracts. In FIG. 14 the following description applies (a) IC50 was determined from fitted sigmoid curves; […] indicates the concentration of compound that inhibits cap-dependent translation by 50%, which was normalized by cap-independent translation. For its determination, the bicistronic reporter FF/HCV/Ren mRNA was used to produce Firefly luciferase (cap-dependent) and Renilla luciferase (cap-independent) in Krebs-2 extracts in the presence of indicated compounds at various concentrations. In particular, translation of Firefly luciferase (FF) is cap-dependent and depends on eIF4A activity; in contrast, translation of Renilla luciferase (REN) utilizes the HCV internal ribosome entry site (IRES) which functions independently of eIF4A. IC50's were determined by the inhibition of FF relative to REN obtained in the presence of compound relative to vehicle controls and normalized to REN as an internal control. […] In accordance with the eIF4A-RNA-rocaglamide (2) co-crystallographic analysis (FIG. 4), the amide carbonyl of 2 interacts with Gln195 of eIF4A as a H-bond acceptor, while the tertiary hydroxyl of 2 serves as a H-bond donor to an RNA base. […] To further verify the hypothesis, amidino-rocaglates (pKa of N—H˜26.7-30.7 in DMSO, strong H-bond donors) and amino-rocaglates (pKa of N—H˜36 to 44 in DMSO, weak H-bond donors) were next evaluated. […] Conversely, benzyl amidine 9e had IC50=60 nM, whereas the methylene tether may allow conformational adjustment to avoid rigid repulsion in the binding pocket.
The rocaglate collection was also tested in in vitro translation assays using cell-free extracts with a previously described bicistronic mRNA containing the HCV IRES, which is not dependent on eIF4A activity and served as an internal control (FIG. 19C).
(§1) In Vitro Translation Assays. In vitro translation assays performed in Krebs-2 cell extracts were supplemented with 5 mM MgCl2, 30 mM Tris-HCl (pH 7.5), 1.5 mM ATP, 0.1 mM GTP, 0.6 mM CTP, 10 mM dipotassium creatine phosphate, 80 μg/mL creatine kinase, and 0.04 mM amino acids. The specified mRNA reporters were added to each reaction at a final concentration of 10 ng/μL. The translation reactions were incubated with or without compound for 60 minutes at 30° C. prior to the measurement of luciferase activities.
FIGS. 19A-19C. Rocaglate activity profiling. 19A. Assessing eIF4A1:poly r(AG)8 (SEQ ID NO: 2) RNA binding by FP in the presence of 10 μM rocaglate. Values are expressed relative to vehicle controls and data is rank ordered. n=3±SD. 19B. The change in polarization obtained with eIF4A1:poly r(AG)8 (SEQ ID NO: 2) and eIF4A2:poly r(AG)8 (SEQ ID NO: 2) RNA. Pearson r=0.814; p<0.0001. 19C. Inhibition of cap-dependent translation by rocaglates was measured using the indicated mRNA bicistronic reporter (4 ng/ul) in Krebs-2 extracts at a final compound concentration of 2 μM. n=3±SD.
FIG. 35A-35E are plots showing dose-response curve of FF-HCV-Ren mRNA translation in Krebs extracts with IC50s shown for inhibition of cap-dependent protein synthesis. Values are plotted relative to DMSO controls. n=2 technical replicates performed in duplicate.

[2] = tested on: cap-dependent translation; experiment: in vitro translation of (AG)10- and (UC)10-FF/HCV/Ren mRNA reporters in Krebs-2 extracts; type: biochemical; conditions: cap-proximal (AG)10 or (UC)10
Experimental: Rocaglates show differing mRNA targeting spectra in translation assays. The in vitro experiments described above investigating the rocaglate-mediated inhibition of cap-dependent translation were performed at a fixed rocaglate concentration (2 μM) using a generic bicistronic mRNA reporter in Krebs-2 cell-free translation extracts (FIG. 19C). To better assess the consequences of eIF4A:polypurine clamping on the initiation process, we designed a series of bicistronic reporters harboring cap-proximal polypurine tracks of varying lengths in their 5′ leader region (FIG. 22A). […] We reasoned that these reporters would provide a sensitized readout for rocaglate-induce clamping of eIF4A at this location.
We next tested the response of mRNA reporters containing cap-proximal (AG)10 or (UC)10 sequences (FIG. 22A). […] The difference in activity observed between CR-1-31-B (23) and silvestrol 1 was not restricted to cap-proximal polypurine tracks, but also observed with reporters where the polypurine/polypyrimidine tracks were situated 15 nt downstream from the cap (FIGS. 24A and 24B).
as §1
FIGS. 23A-23C. The presence of polypurines bases in mRNA 5′ leader regions are not universal predictors of rocaglate-responsiveness. FIG. 23A. Schematic diagram of FF/HCV/Ren mRNA reporters containing cap-proximal (AG) or (UC) dinucleotide repeats. 23B. Firefly and renilla luciferase activity in response to the indicated CR-1-31-B (23) concentrations (relative to DMSO controls) in Krebs-2 extracts programmed with 4 ng/uL of the indicated mRNAs. n=3±SD. 23C. Dose response of the indicated compounds in Krebs-2 extracts programmed with 4 ng/μL of the indicated mRNAs. n=3± SD.
FIG. 23. Dose-response of (AG)10- and (UC)10-FF/HCV/Ren mRNAs to CMLD011167, hippuristanol and pateamine A in vitro. Firefly and renilla luciferase activity in response to the indicated compound concentrations (relative to DMSO controls) in Krebs-2 extracts programmed with 4 ng/μL of the indicated mRNAs. n=3± SD.

Row | Compound | IC50 [1] | inhibition of cap-dependent translation in vitro (in words) [1] | inhibition of (AG)10 versus (UC)10 reporter in vitro (in words) [2]
1 | COC(=O)[C@@H]1[C@@H](c2ccccc2)[C@]2(c3ccc(OC)cc3)Oc3cc(OC)cc(OC)c3[C@@]23N=C(C)N[C@@]13O [9b] | 189 nM | comparable potency to SDS-1-021 | equally inhibited translation of both (AG)10 and (UC)10 reporters
2 | CONC(=O)[C@H]1[C@@H](O)[C@@]2(O)c3c(OC)cc(OC)cc3O[C@@]2(c2ccc(OC)cc2)[C@@H]1c1ccccc1 [CR-1-31-B] | 272 nM | – | inhibited cap-dependent translation (FLuc) from only the (AG)10-containing mRNA
3 | COc1ccc([C@@]23Oc4cc(OC)cc(OC)c4[C@]2(O)[C@H](O)[C@H](C(=O)N(C)C)[C@H]3c2ccccc2)cc1 [RocA, rocaglamide A] | – | – | inhibited cap-dependent translation (FLuc) from only the (AG)10-containing mRNA
4 | COC(=O)[C@H]1[C@@H](O)[C@@]2(O)c3c(OC)cc(O[C@@H]4O[C@@H]([C@H](O)CO)CO[C@H]4OC)cc3O[C@@]2(c2ccc(OC)cc2)[C@@H]1c1ccccc1 [silvestrol] | – | potently inhibit cap-dependent translation | equally inhibited both mRNA reporters
